According to patent US20050238642A1, “Modified bouganin proteins, cytotoxins and methods and uses thereof” (priority 2004, published 2005):

B1: VB6-845: cytotoxin: Fab version of an anti-Ep-CAM scFv antibody linked to Bou156 at the C-terminus of the CH domain via a furin linker (protein)
chain 1: EVQLVQSGPGLVQPGGSVRISCAASGYTFTNYGMNWVKQAPGKGLEWMGWINTYTGESTYADSFKGRFTFSLDTSASAAYLQINSLRAEDTAVYYCARFAIKGDYWGQGTLLTVSSASTKGPSVFPLAPSSKSTSGGTAALGCLVKDYFPEPVTVSWNSGALTSGVHTFPAVLQSSGLYSLSSVVTVPSSSLGTQTYICNVNHKPSNTKVDKKVEPKSCTRHRQPRGWEQLYNTVSFNLGEAYEYPTFIQDLRNELAKGTPVCQLPVTLQTIADDKRFVLVDITTTSKKTVKVAIDVTDVYVVGYQDKWDGKDRAVFLDKVPTVATSKLFPGVTNRVTLTFDGSYQKLVNAAKADRKALELGVNKLEFSIEAIHGKTINGQEAAKFFLIVIQMVSEAARFKYIETEVVDRGLYGSFKPNFKVLNLENNWGDISDAIHKSSPQCTTINPALQLISPSNDPWVVNKVSQISPDMGILKFKSSK
chain 2: HHHHHHDIQMTQSPSSLSASVGDRVTITCRSTKSLLHSNGITYLYWYQQKPGKAPKLLIYQMSNLASGVPSRFSSSGSGTDFTLTISSLQPEDFATYYCAQNLEIPRTFGQGTKVELKRTVAAPSVFIFPPSDEQLKSGTASVVCLLNNFYPREAKVQWKVDNALQSGNSQESVTEQDSKDSTYSLSSTLTLSKADYEKHKVYACEVTHQGLSSPVTKSFNRGEC

What was measured:
HMEC = test: MTS cytotoxicity assay; format: cell-based, human; settings: Ep-CAM-negative HMEC, 5 days
Experimental: The tumour cell lines used in this study were purchase from ATCC and were propagated following ATCC's recommendations except for the cell lines C-41, TOV-112D which were grown in RPMI 1640 or DMEM supplemented with 10% FCS, respectively. Tumor cells were harvested at 60-70% confluence with viability over 90%. The human normal mammary epithelial cells (HMEC) were purchased from CAMBREX and maintained in specified media according to the procedure provided by CAMBREX. The cells were harvested at 70% confluence with viability over 90%.
(§1) The MTS assay was preformed using standard techniques known in the art. More particularly, 50 microlitres of cells (2×10^4 cells/ml) were seeded per well and plates were incubated at 37° C. under 5% CO2 for 2 hr. Then 50 microlitres of spiked drug (i.e. construct to be tested or control) was added to the culture medium at increasing concentrations. Culture medium, with or without cells, was used as positive and negative controls, respectively. The plates were left at 37° C. under 5% CO2 for 5 days. At day 5, the inhibition of cell proliferation was evaluated by adding 20 microlitres of MTS reagent (Promega, Cat# G5430). The plates were further incubated at 37° C. under 5% CO2 for 2 hr and ODs were read at 490 nm using the plate reader spetrophotometer. Background values were subtracted from the sample values obtained for each concentration and the results were expressed as a percent of viable cells. The IC50 values for each drug were calculated for each cell line.

DAUDI = test: MTS cytotoxicity assay; format: cell-based; settings: Ep-CAM-negative DAUDI, 5 days
Experimental: as §1

A-375 = test: MTS cytotoxicity assay; format: cell-based; settings: Ep-CAM-negative A-375, MTS, 5 days
Experimental: as §1

NIH:OVCAR-3 = test: MTS cytotoxicity assay; format: cell-based; settings: Ep-CAM-positive NIH:OVCAR-3, MTS, 5 days
Experimental: The MTS assay used to measure potency was conducted using standard technique known in the art, and as more fully described below in Example 8. […] In the case of VB6-845-CL-de-bouganin, the potency was measured at 1 to 2 nM for CAL 27 and 0.6 to 0.7 nM versus NIH:OVCAR-3.
as §1

[1] = tested on: PBMCs (peripheral blood mononuclear cells) from naive donors; test: Naive human T-cell proliferation assay (3H-thymidine incorporation, stimulation index); format: cell-based; settings: for presence of T cell epitope: compilation of 20 donors, 1 μM and 5 μM; for responsive donors: of 20 donor PBMC samples
Experimental: Accordingly, in the present studies, 89 synthetic 15-mer peptides (as listed in Table 1) were used in T-cell proliferation assays with PBMCs (peripheral blood mononuclear cells) from naive donors (i.e. no known sensitization to bouganin). 20 donor PBMC samples were selected to achieve an optimal coverage of MHC class II allotypes. PBMCs were stimulated with individual peptides in triplicate cultures for 7 days before proliferation was assessed by ^3H-thymidine incorporation. All peptides were diluted at two different concentrations: 1 μM and 5 μM. The stimulation indices (SI) were calculated as the amount of ^3H incorporated into the cells, divided by the amount of ^3H incorporated in mock-stimulated controls.
The peptides were used in T-cell proliferation assays with PBMCs (peripheral blood mononuclear cells) from naive donors (i.e. no known sensitization to bouganin). 20 donor PBMC were selected to get an optimal coverage of MHC class II allotypes. The allotypic coverage is in excess of 85%.
PBMCs were stimulated with individual peptides in triplicate cultures for 7 days before proliferation was assessed by ^3H-thymidine (^3H-Thy) incorporation. All peptides were tested at two different concentrations (1 μM and 5 μM). Stimulation indices (S.I.) were calculated as the amount of ^3H incorporated, divided by the amount of ^3H incorporated in mock-stimulated control cells.
Buffy coats from human blood stored for less than 12 hours were obtained from the National Blood Service (Addenbrooks Hospital, Cambridge, UK). Ficoll-paque was obtained from Amersham Pharmacia Biotech (Amersham, UK). Serum free AIM V media for the culture of primary human lymphocytes and containing L-glutamine, 50 μg/ml streptomycin, 10 μg/ml gentomycin and 0.1% human serum albumin was from Gibco-BRL (Paisley, UK). Synthetic peptides were obtained from Eurosequence (Groningen, The Netherlands) and Babraham Technix (Cambridge, UK).
Erythrocytes and leukocytes were separated from plasma and platelets by gentle centrifugation of buffy coats. The top phase (containing plasma and platelets) was removed and discarded. Erythrocytes and leukocytes were diluted 1:1 in phosphate buffered saline (PBS) before layering onto 15 ml ficoll-paque (Amersham Pharmacia, Amersham UK). Centrifugation was done according to the manufacturers recommended conditions and PBMCs were harvested from the serum+PBS/ficoll paque interface. PBMCs were mixed with PBS (1:1) and collected by centrifugation. The supernatant was removed and discarded and the PBMC pellet resuspended in 50ml PBS. Cells were again pelleted by centrifugation and the PBS supernatant discarded. Cells were resuspended using 50 ml AIM V media and at this point counted and viability assessed using trypan blue dye exclusion. Cells were again collected by centrifugation and the supernatant discarded. Cells were resuspended for cryogenic storage at a density of 3×10^7 per ml. The storage medium was 90% (v/v) heat inactivated AB human serum (Sigma, Poole, UK) and 10% (v/v) DMSO (Sigma, Poole, UK). Cells were transferred to a regulated freezing container (Sigma) and placed at −70° C. overnight. When required for use, cells were thawed rapidly in a water bath at 37° C. before transferring to 10ml pre-warmed AIM V medium.
PBMC were stimulated with protein and peptide antigens in a 96 well flat bottom plate at a density of 2×10^5 PBMC per well. PBMC were incubated for 7 days at 37° C. before pulsing with ^3H-Thy (Amersham-Pharmacia, Amersham, UK). […] C-32=sequence […] from Flu haemagglutinin residues 307-319 (SEQ ID NO:127). C-49=sequence […] from Chlamydia HSP 60 (SEQ ID NO:128).
Peptides were dissolved in DMSO to a final concentration of 10 mM, these stock solutions were then diluted 1/500 in AIM V media (final concentration 20 μM). Peptides were added to a flat bottom 96 well plate to give a final concentration of 1 and 5 μM in 100 μl. […]

| Molecule | IC50 (HMEC) | IC50 (DAUDI) | IC50 (A-375) | IC50 (HMEC; Homo sapiens, 120 h) | IC50 (DAUDI; Homo sapiens, 120 h) | IC50 (A-375; Homo sapiens, 120 h) | IC50 (NIH:OVCAR-3; Homo sapiens, 120 h) | further results |
| --- | --- | --- | --- | --- | --- | --- | --- | --- |
| Cc1c(N)nc([C@H](CC(N)=O)NC[C@H](N)C(N)=O)nc1C(=O)N[C@H](C(=O)N[C@H](C)[C@@H](O)[C@H](C)C(=O)N[C@H](C(=O)NCCc1nc(-c2nc(C(=O)NCCCNCCCCN)cs2)cs1)[C@@H](C)O)[C@@H](O[C@@H]1O[C@@H](CO)[C@@H](O)[C@H](O)[C@@H]1O[C@@H]1O[C@H](CO)[C@@H](O)[C@H](OC(N)=O)[C@@H]1O)c1cnc[nH]1 [Bleomycin A5] | 1000 nM | 130 nM | 290 nM |  |  |  |  | IC50 (NIH:OVCAR-3): 150 nM |
| N.N.O=C([O-])C1(C(=O)[O-])CCC1.[Pt+2] [Carboplatin] | > 1000 nM | > 1000 nM | > 1000 nM |  |  |  |  | IC50 (NIH:OVCAR-3): > 1000 nM |
| O=C(O)CCCc1ccc(N(CCCl)CCCl)cc1 [Chlorambucil] |  |  |  | > 1000 nM | > 1000 nM | > 1000 nM | > 1000 nM |  |
| N.N.[Cl][Pt][Cl] [Cisplatin] | > 1000 nM | > 1000 nM | > 1000 nM |  |  |  |  | IC50 (NIH:OVCAR-3): > 1000 nM |
| O=P1(N(CCCl)CCCl)NCCCO1 (centres unmarked) [Cyclophosphamide] |  |  |  | > 1000 nM | > 1000 nM | > 1000 nM | > 1000 nM |  |
| COc1cccc2c1C(=O)c1c(O)c3c(c(O)c1C2=O)C[C@@](O)(C(=O)CO)C[C@@H]3O[C@H]1C[C@H](N)[C@H](O)[C@H](C)O1 [Doxorubicin] |  |  |  | 16 nM |  | 2.8 nM | 3 nM |  |
| COc1cc([C@@H]2c3cc4c(cc3[C@@H](O[C@@H]3O[C@@H]5CO[C@@H](C)O[C@H]5[C@H](O)[C@H]3O)[C@H]3COC(=O)[C@H]23)OCO4)cc(OC)c1O [Etoposide] |  |  |  | 600 nM | 1.7 nM | 280 nM | 210 nM |  |
| O=c1[nH]cc(F)c(=O)[nH]1 [Fluorouracil] |  |  |  | > 1000 nM | > 1000 nM | > 1000 nM | > 1000 nM |  |
| CCc1c2c(nc3ccc(OC(=O)N4CCC(N5CCCCC5)CC4)cc13)-c1cc3c(c(=O)n1C2)COC(=O)[C@]3(O)CC [Irinotecan] |  |  |  | 1000 nM | 190 nM | 900 nM | 180 nM |  |
| CN(Cc1cnc2nc(N)nc(N)c2n1)c1ccc(C(=O)N[C@@H](CCC(=O)O)C(=O)O)cc1 [Methotrexate] |  |  |  | 41 nM | 3.6 nM | 6 nM | > 1000 nM |  |
| CO[C@@]12[C@H](COC(N)=O)C3=C(C(=O)C(C)=C(N)C3=O)N1C[C@@H]1N[C@@H]12 [Mitomycin C] | 50 nM | 2.8 nM | 14 nM |  |  |  |  | IC50 (NIH:OVCAR-3): 28 nM |
| CC[C@@]1(O)C(=O)OCc2c1cc1n(c2=O)Cc2cc3c(CN(C)C)c(O)ccc3nc2-1 [Topotecan] |  |  |  | 4.1 nM | 0.009 nM | 1.5 nM | 0.071 nM |  |
| Bleomycin Sulfate | 600 nM | 22 nM | 170 nM |  |  |  |  | IC50 (NIH:OVCAR-3): 30 nM |
| EIAKFFLIVIQMVSE [peptide 51, bouganin 15-mer peptide, first amino acid 151] |  |  |  |  |  |  |  | S.I. (stimulation index) ([1]; donor 14): > 1.9 |
| IVEDLDGDELEILEP [peptide 88, 15-mer peptide of the unprocessed form of bouganin, first amino acid 261] |  |  |  |  |  |  |  | presence of T cell epitope [1]: T cell epitopes |
| LGVYKLEFSIEAIHG [peptide 44, bouganin 15-mer peptide, first amino acid 130] |  |  |  |  |  |  |  | presence of T cell epitope [1]: T cell epitopes; S.I. (stimulation index) ([1]; donor 4): 3.5; S.I. (stimulation index) ([1]; donor 11): 2.3; responsive donors [1]: two |
| NGQEIAKFFLIVIQM [peptide 50, bouganin 15-mer peptide, first amino acid 148] |  |  |  |  |  |  |  | presence of T cell epitope [1]: T cell epitopes; S.I. (stimulation index) ([1]; donor 4): 2.9; S.I. (stimulation index) ([1]; donor 14): 2.0; responsive donors [1]: 2 |
| YKLEFSIEAIHGKTI [compound 45, bouganin 15-mer peptide, first amino acid 133] |  |  |  |  |  |  |  | T cell proliferation (in words) ([1]; compared with peptide 44): lower level T cell proliferation |
| B1 | 220 nM | > 1000 nM | > 1000 nM |  |  |  |  |  |
